Experimental data taken from PMC8300687, “A Fine-Tuned Lipophilicity/Hydrophilicity Ratio Governs Antibacterial Potency and Selectivity of Bifurcated Halogen Bond-Forming NBTIs” (Antibiotics, 2021).

Assays:
[1] = target: T1, hERG potassium ion channel (Homo sapiens, UniProt Q12809); test: FP-based hERG binding assay (Invitrogen kit)
T1 construct: purchased Invitrogen (assay run at TCG Lifesciences Pvt. Ltd.)
Description: Cardiovascular safety profile was entirely outsourced. hERG screening was performed at TCG Lifesciences Pvt. Ltd., Kolkata, West Bengal, India with FP-based hERG binding assay (Invitrogen kit).

[2] = test system: HepG2; test: Metabolic activity assessment (cytotoxicity), HepG2; format: cell-based; conditions: Homo sapiens
Description: Cells of the HepG2 line (ATCC® HB-8065™) and HUVEC (ATCC® CRL-1730™) were cultured in Dulbecco’s Modified Eagle Medium (DMEM; Sigma-Aldrich, St. Louis, MO, USA) supplemented with 10% heat-deactivated FBS (Gibco, Grand Island, NE, USA), 2 mM L-glutamine, 100 U/mL penicillin, 100 μg/mL streptomycin (all from Sigma-Aldrich, St. Louis, MO, USA) in a humidified chamber at 37 °C and 5% CO2. The experiments were carried out on passages 7–9 for both cell lines. The tested compounds were dissolved in DMSO and further diluted in culture medium to a desired final concentration. Cells were seeded into 96-well plates at 8 × 10^4 cells/mL (100 μL/well) and incubated for 24 h to attach onto the wells. Cells were treated with 1 μM and 50 μM of each compound of interest or corresponding vehicle as control. […] The metabolic activity was assessed after 72 h treatment using the CellTiter 96 Aqueous One Solution Cell Proliferation Assay (Promega, Madison, WI, USA), in accordance with the manufacturer’s instructions. The absorbance was measured at 492 nm on an automated microplate reader BioTek Synergy HT (BioTek Instruments, Inc., Winooski, VT, USA). Data are presented as the percentage of metabolic activity of control cells stimulated with vehicle or as IC50 value (mean ± SD) from two independent experiments, each conducted in duplicate or triplicate. IC50 values were calculated by a non-linear regression model using Graph Pad Prism 7 software.

[3] = target: T2, S. aureus DNA gyrase (Staphylococcus aureus, UniProt P20831); test: gel-based S. aureus Gyrase Supercoiling assay (Inspiralis); format: biochemical; conditions: gel-based assays by Inspiralis, as detailed in [13]
T2 construct: purchased Inspiralis (Norwich, UK)
Description: […]. […] IC50 value represents the mean of two to four independent measurements.

[4] = HepG2, metabolic activity after 72 h treatment
[5] = HepG2, 72 h, metabolic activity after 72 h treatment

T1 sequence (Q12809 whole entry): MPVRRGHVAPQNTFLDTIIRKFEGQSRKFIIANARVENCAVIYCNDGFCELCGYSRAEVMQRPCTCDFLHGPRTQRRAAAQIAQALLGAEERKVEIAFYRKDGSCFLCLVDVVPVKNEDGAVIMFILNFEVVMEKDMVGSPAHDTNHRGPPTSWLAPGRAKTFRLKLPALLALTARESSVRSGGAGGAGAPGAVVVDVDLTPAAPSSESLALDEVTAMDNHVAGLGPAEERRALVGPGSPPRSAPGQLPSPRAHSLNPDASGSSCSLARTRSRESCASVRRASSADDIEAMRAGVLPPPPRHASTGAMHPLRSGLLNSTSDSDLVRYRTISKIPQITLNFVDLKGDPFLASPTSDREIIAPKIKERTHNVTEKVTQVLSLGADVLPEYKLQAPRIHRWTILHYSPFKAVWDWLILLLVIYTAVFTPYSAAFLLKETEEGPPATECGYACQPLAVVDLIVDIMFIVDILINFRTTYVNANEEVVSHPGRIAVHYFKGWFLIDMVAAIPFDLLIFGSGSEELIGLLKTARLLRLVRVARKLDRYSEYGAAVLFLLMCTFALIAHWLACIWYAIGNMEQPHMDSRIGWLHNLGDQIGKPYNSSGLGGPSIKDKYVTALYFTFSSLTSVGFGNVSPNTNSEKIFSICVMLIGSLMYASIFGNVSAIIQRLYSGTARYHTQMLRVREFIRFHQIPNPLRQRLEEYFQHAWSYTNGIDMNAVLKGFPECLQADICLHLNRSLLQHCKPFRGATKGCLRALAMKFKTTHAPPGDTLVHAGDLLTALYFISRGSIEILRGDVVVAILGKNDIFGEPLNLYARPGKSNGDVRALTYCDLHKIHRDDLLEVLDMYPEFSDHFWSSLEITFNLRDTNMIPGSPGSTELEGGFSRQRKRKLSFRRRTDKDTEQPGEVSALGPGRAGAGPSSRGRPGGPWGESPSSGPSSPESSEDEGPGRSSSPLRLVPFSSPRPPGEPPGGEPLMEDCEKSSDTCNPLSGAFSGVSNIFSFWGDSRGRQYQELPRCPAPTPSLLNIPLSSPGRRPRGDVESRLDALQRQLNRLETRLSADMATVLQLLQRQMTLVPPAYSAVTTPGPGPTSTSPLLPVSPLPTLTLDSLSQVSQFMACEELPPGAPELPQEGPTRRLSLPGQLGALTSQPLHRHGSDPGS
T2 sequence (P20831 whole entry): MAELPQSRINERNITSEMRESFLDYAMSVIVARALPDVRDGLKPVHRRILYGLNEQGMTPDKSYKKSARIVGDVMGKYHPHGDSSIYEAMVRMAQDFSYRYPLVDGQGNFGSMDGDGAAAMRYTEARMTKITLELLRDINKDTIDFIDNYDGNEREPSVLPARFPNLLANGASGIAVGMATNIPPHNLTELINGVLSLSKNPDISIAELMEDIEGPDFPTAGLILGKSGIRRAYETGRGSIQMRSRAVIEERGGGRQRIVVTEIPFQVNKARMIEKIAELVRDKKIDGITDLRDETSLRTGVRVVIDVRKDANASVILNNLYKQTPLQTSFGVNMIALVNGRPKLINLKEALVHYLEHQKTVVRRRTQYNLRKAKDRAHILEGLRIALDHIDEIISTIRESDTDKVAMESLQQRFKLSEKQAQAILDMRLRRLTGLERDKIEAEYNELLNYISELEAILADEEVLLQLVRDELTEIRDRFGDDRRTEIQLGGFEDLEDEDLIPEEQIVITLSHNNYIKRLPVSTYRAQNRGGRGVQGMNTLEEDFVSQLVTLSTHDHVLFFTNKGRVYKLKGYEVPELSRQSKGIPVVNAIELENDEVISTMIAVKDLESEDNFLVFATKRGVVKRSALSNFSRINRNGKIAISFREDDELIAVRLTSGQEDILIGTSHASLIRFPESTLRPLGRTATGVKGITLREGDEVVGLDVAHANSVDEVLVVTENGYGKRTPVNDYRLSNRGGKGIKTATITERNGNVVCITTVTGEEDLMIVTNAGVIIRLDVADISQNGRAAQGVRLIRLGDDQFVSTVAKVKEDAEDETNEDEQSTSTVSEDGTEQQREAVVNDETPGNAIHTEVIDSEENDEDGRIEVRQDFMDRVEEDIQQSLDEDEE
T2 sequence (P0A0K8 whole entry partner): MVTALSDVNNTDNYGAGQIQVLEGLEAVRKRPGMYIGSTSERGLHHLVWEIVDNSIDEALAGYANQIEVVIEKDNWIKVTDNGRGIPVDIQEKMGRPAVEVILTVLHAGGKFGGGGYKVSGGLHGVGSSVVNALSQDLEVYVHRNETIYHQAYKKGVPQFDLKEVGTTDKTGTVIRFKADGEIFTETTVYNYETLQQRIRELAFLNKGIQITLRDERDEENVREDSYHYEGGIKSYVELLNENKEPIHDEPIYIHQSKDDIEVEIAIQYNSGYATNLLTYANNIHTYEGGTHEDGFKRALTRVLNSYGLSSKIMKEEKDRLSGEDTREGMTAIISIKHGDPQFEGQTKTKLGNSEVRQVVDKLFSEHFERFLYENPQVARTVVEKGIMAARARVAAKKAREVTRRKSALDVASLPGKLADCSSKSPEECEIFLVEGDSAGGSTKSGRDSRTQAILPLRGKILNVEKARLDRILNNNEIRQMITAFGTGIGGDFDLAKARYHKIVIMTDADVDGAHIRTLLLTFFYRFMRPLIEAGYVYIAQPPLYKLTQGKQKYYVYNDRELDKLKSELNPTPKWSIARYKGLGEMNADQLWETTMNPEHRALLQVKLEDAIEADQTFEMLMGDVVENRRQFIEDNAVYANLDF

| Compound | IC50 [1] | IC50 [2, 4] | IC50 [3] | IC50 [2, 5] |
| --- | --- | --- | --- | --- |
| COc1ccc2nccc(CCN3CCC(NCc4nc5ccccc5n4C)CC3)c2n1 [Compound 3, 1-(2-(6-Methoxy-1,5-naphthyridin-4-yl)ethyl)-N-((1-methyl-1H-benzo[d]imidazol-2-yl)methyl)piperidin-4-amine] | 1.04 µM |  |  |  |
| COc1ccc2nccc(CCN3CCC(NCc4cnn(-c5ccc(F)cc5)c4)CC3)c2n1 [Compound 4, N-((1-(4-Fluorophenyl)-1H-pyrazol-4-yl)methyl)-1-(2-(6-methoxy-1,5-naphthyridin-4-yl)ethyl)piperidin-4-amine] | 0.33 µM | 4.64 ± 0.1 µM |  |  |
| COc1ccc2nccc(CCN3CCC(NCc4cnn(-c5ccccc5)c4)CC3)c2n1 [Compound 5, 1-(2-(6-Methoxy-1,5-naphthyridin-4-yl)ethyl)-N-((1-phenyl-1H-pyrazol-4-yl)methyl)piperidin-4-amine] | 0.62 µM | 6.33 ± 0.19 µM |  |  |
| COc1ccc2nccc(CCN3CCC(NCc4cnn(-c5ccccc5)n4)CC3)c2n1 [Compound 8, 1-(2-(6-Methoxy-1,5-naphthyridin-4-yl)ethyl)-N-((2-phenyl-2H-1,2,3-triazol-4-yl)methyl)piperidin-4-amine] | 0.37 µM | 17.1 ± 0.98 µM |  |  |
| COc1ccc2nccc(CCN3CCC(NCc4cnn(C(C)C)c4)CC3)c2n1 [Compound 9, N-((1-Isopropyl-1H-pyrazol-4-yl)methyl)-1-(2-(6-methoxy-1,5-naphthyridin-4-yl)ethyl)piperidin-4-amine] | 9.82 µM | > 50 µM |  |  |
| C=CCn1cc(CNC2CCN(CCc3ccnc4ccc(OC)nc34)CC2)cn1 [Compound 10, N-((1-Allyl-1H-pyrazol-4-yl)methyl)-1-(2-(6-methoxy-1,5-naphthyridin-4-yl)ethyl)piperidin-4-amine] | 6.62 µM | > 50 µM |  |  |
| COc1ccc2nccc(CCN3CCC(NCc4ccc(I)cc4)CC3)c2n1 [Compound 15] |  |  | 0.011 ± 0.003 µM | ~10 µM |
| COc1ccc2nccc(CCN3CCC(NCc4ccc(CO)cc4)CC3)c2n1 [Compound 16] | 3.24 µM |  |  |  |
| COc1ccc2nccc(CCN3CCC(NCc4ccc(OC(F)F)c(OC)c4)CC3)c2n1 [Compound 19, N-(4-(Difluoromethoxy)-3-methoxybenzyl)-1-(2-(6-methoxy-1,5-naphthyridin-4-yl)ethyl)piperidin-4-amine] | 0.46 µM |  |  | 6.31 ± 0.09 µM |
| COc1ccc2nccc(CCN3CCC(NCc4ccc(OC(F)F)c(O)c4)CC3)c2n1 [Compound 20, 2-(Difluoromethoxy)-5-((1-(2-(6-methoxy-1,5-naphthyridin-4-yl)ethyl)piperidin-4-ylamino)methyl)phenol] | 0.18 µM |  |  | 10.9 ± 0.12 µM |
| COc1ccc2nccc(CCN3CCC(NCc4ccc(C(F)(F)F)nc4)CC3)c2n1 [Compound 21, 1-(2-(6-Methoxy-1,5-naphthyridin-4-yl)ethyl)-N-((6-(trifluoromethyl)pyridin-3-yl)methyl)piperidin-4-amine] | 1.97 µM | > 50 µM |  |  |
| COc1ccc(CNC2CCN(CCc3ccnc4ccc(OC)nc34)CC2)cn1 [Compound 22, 1-(2-(6-Methoxy-1,5-naphthyridin-4-yl)ethyl)-N-((6-methoxypyridin-3-yl)methyl)piperidin-4-amine] | 3.05 µM | 32.03 ± 0.3 µM |  |  |
